Type in all cases: in vivo, human
The nature of data set [1]: Population pharmacokinetic analysis (studies DG-031-201, DG-031-203). As for the experimental part: Preliminary population pharmacokinetic (PK) analysis was also carried out based on clinical studies DG-031-201 and DG-031-203. Based on visual inspection of the individual and mean time course of DG-031 concentrations, a simple one compartmental disposition model following first order oral absorption, and an absorption lag time was fit to the data. A mixed effects modeling approach was used. The pharmacokinetic model parameters (fixed effects) included oral clearance (CL), distribution volume (V), oral absorption (ka), and absorption lag (tiag). The statistical model includes inter-individual random effects as well as a residual error term. All inter-subject random effect parameters (it's) and residual error terms (&) are assumed to be normally distributed with mean of zero and variance o2 and a2, respectively. Random effects on all pharmacokinetic model parameters were explored. Maximum likelihood estimates of the structural (0's) and statistical model parameters were estimated using an approximation to the mixed effect log-likelihood as implemented in the NONMEM program (NONMEM Version Vi).
The influence of patient characteristics (covariates) on pharmacokinetic parameters was explored. Age, gender, body weight, and CrCL (creatinine clearance) were included in the model as covariates if warranted.
Model selection will be done on the basis of the log-likelihood criterion (p<0.05) and visual inspection of goodness-of-fit plots. The difference in −2 times the log of the likelihood (−2LL) between a full and reduced model is asymptotically χ^2 distributed with degrees of freedom equal to the difference in number of parameters between the two models. For instance, a decrease of more than 3.84 in −2LL is considered significant at the p<0.05 level for 1 additional parameter. Standard errors of the parameter estimates are approximated using the asymptotic covariance matrix.

A short description of data set [2]: Study DG-031-204: serum creatinine. The settings on record: both 500 mg BID and 500 mg TID groups. As for the experimental part:
An additional single site, open label study was carried out to obtain biomarker and safety data on additional DG-031 doses (i.e., 1000 mg and 1500 mg). This study examined the safety, tolerability and dose-related effects of DG-031 on inflammatory biomarkers including: LTB4, hsCRP, and MPO. A total of 119 patients with a prior history of CAD and MI were randomized to receive either 1000 mg DG-031 (500 mg BID) or 1500 mg DG-031 (500 mg TID) daily for 4-6 weeks. Treatment with DG-031 in addition to the subject's standard care, medication, and treatment, was prescribed by the patient's cardiologist. A majority of the subjects received statin therapy before, during and after the study. Follow-up assessments were performed 2 weeks after the end of study drug administration.
Liver function tests (AST, ALT, GGT) were assessed weekly during study drug administration and two weeks after dosing. […] Serum creatinine (Cr) was measured weekly during study drug administration and two weeks after dosing. In both the 500 mg BID and 500 mg TID treatment groups, mean serum Cr concentrations increased 4-5% relative to baseline levels. At the 2-week follow up visit, mean serum Cr returned to baseline in the cohort treated for 4 weeks, but remained elevated in the group treated for 6 weeks. Creatine kinase (CK) measurements were obtained weekly during study drug administration and two weeks after dosing.

Data set [3] deals with White blood cell count. The data set is described as follows: Study DG-031-201: white blood cell count. Particulars: difference visit 2 to 5; 500 and 750 mg/day vs placebo. As for the experimental part: Patients who met the study eligibility criteria were enrolled and randomized into 3 different dose-level groups: (1) 64 patients on 250 mg/day therapy with DG-031 (250 mg q.d.), vs placebo; (2) 64 patients on 500 mg/day therapy with DG-031 (250 mg b.i.d.) vs placebo; and (3) 63 patients on 750 mg/day therapy with DG-031 (250 mg t.i.d.) vs placebo. […] All patients received 3 tablets per day. Treatment periods, 4 weeks in duration each, were separated by a 2-week washout period. The placebo tablets were identical in shape, color, form and taste to the active tablets except that they contained no active drug ingredients. Treatment with DG-031 or placebo was in addition to the subject's standard care, including all medications and treatment plan as prescribed by the subject's cardiologist prior to enrolment. A total of 191 subjects were enrolled, with 172 completing all 8 visits or 8 patients short of the target of 180 patients.
All data were analyzed according to a pre-established statistical analysis plan (SAP) and by intention-to-treat (ITT). Each arm of the study, as well as pooled sets (combining dose levels), was considered for the primary analysis. […] The difference between DG-031 and placebo treatment was the primary outcome, assessed separately for each of the biomarkers. […]

Structures are written as SMILES.

Consider `O=C(O)[C@@H](c1ccc(OCc2ccc3ccccc3n2)cc1)C1CCCC1` [DG-031, (R)-(+)-alpha-cyclopentyl-4-(2-quinolinylmethoxy)-Benzeneacetic acid], for which, in data set [1] (250 mg to 1500 mg administered daily), the PK linearity entry is given as “linear PK”. The “oral CL” value in data set [1] (90 kg patient) was determined as 5.86 L/h. This compound had an Accumulation in data set [1] (BID dosing) of 12%. Also, in data set [1] (human, plasma, oral), the “V (distribution volume)” value stood at 32 L and the “V, inter-subject CV %” value worked out at 44%. The half-life in data set [1] (human, plasma, oral, MI patients, estimated, read-out: Terminal elimination half-life (converted)) was roughly 4 h. In addition, in data set [1] (in vivo), the “Effect of body weight on CL” value is listed as “minor effects”. In data set [2], the “Increase of mean serum Cr concentrations relative to baseline” value is 4-5%. For the same compound, the “Carry-over effect, White blood cell count” value in data set [3] is reported as −0.01.

As a reminder, the half-life is the time in which the quantity being followed falls by half.
